According to ChEMBL document CHEMBL6177980 (J Med Chem, 2025):

Tests used:
[1] = Stability of compound at pH 6.8 assessed as change in purity at 1 mg/ml incubated for 12 hrs by HPLC analysis; type: physicochemical; conditions: buffer, pH 6.8, 12 h
[2] = Stability of compound at pH 4.0 assessed as change in purity at 1 mg/ml incubated for 24 hrs by HPLC analysis; type: physicochemical; conditions: buffer, pH 4, 24 h
[3] = Stability of compound at pH 6.8 assessed as change in purity at 1 mg/ml incubated for 24 hrs by HPLC analysis; type: physicochemical; conditions: buffer, pH 6.8, 24 h
[4] = Stability of compound at pH 4.0 assessed as change in purity at 1 mg/ml incubated for 12 hrs by HPLC analysis; type: physicochemical; conditions: buffer, pH 4, 12 h
[5] = Stability of compound at pH 1.5 assessed as change in purity at 1 mg/ml incubated for 12 hrs by HPLC analysis; type: physicochemical; conditions: buffer, pH 1.5, 12 h
[6] = Cmax in fasted Sprague-Dawley rat at 24 mg/kg, po by LC-MS/MS analysis; type: ADME, organism-based; conditions: in vivo
[7] = AUC (0 to t) in fasted Sprague-Dawley rat at 24 mg/kg, po by LC-MS/MS analysis; type: ADME, organism-based; conditions: in vivo
[8] = Stability of compound at pH 4.0 assessed as change in purity at 1 mg/ml incubated for 4 hrs by HPLC analysis; type: physicochemical; conditions: buffer, pH 4, 4 h
[9] = Stability of compound at pH 6.8 assessed as change in purity at 1 mg/ml incubated for 4 hrs by HPLC analysis; type: physicochemical; conditions: buffer, pH 6.8, 4 h
[10] = Stability of compound at pH 1.5 assessed as change in purity at 1 mg/ml incubated for 24 hrs by HPLC analysis; type: physicochemical; conditions: buffer, pH 1.5, 24 h
[11] = Stability of compound at pH 1.5 assessed as change in purity at 1 mg/ml incubated for 4 hrs by HPLC analysis; type: physicochemical; conditions: buffer, pH 1.5, 4 h
[12] = AUC (0 to t) in fasted Sprague-Dawley rat at 16.5 mg/kg, po by LC-MS/MS analysis; type: ADME, organism-based; conditions: in vivo
[13] = Cmax in fasted Sprague-Dawley rat at 16.5 mg/kg, po by LC-MS/MS analysis; type: ADME, organism-based; conditions: in vivo
[14] = AUC (0 to t) in fasted Sprague-Dawley rat at 17.5 mg/kg, po by LC-MS/MS analysis; type: ADME, organism-based; conditions: in vivo
[15] = Cmax in fasted Sprague-Dawley rat at 17.5 mg/kg, po by LC-MS/MS analysis; type: ADME, organism-based; conditions: in vivo
[16] = AUC (0 to t) in fasted Sprague-Dawley rat at 15.5 mg/kg, po by LC-MS/MS analysis; type: ADME, organism-based; conditions: in vivo
[17] = Cmax in fasted Sprague-Dawley rat at 15.5 mg/kg, po by LC-MS/MS analysis; type: ADME, organism-based; conditions: in vivo
[18] = AUC (0 to t) in fasted Sprague-Dawley rat at 5 mg/kg, iv by LC-MS/MS analysis; type: ADME, organism-based; conditions: in vivo
[19] = Cmax in fasted Cynomolgus monkey at 5 mg/kg, po by LC-MS/MS analysis; type: ADME, organism-based, Macaca fascicularis; conditions: in vivo
[20] = Stability in SIF assessed as compound degradation measured for 24 hrs by HPLC analysis; type: physicochemical; conditions: simulated intestinal fluid (SIF), read-out: Drug degradation
[21] = Half life in fasted Cynomolgus monkey at 5 mg/kg, po by LC-MS/MS analysis; type: ADME, organism-based, Macaca fascicularis; conditions: in vivo
[22] = AUC (0 to t) in fasted Sprague-Dawley rat at 10 mg/kg, po by LC-MS/MS analysis; type: ADME, organism-based; conditions: in vivo
[23] = Half life in fasted Cynomolgus monkey at 2 mg/kg, iv by LC-MS/MS analysis; type: ADME, organism-based, Macaca fascicularis; conditions: in vivo
[24] = Cmax in fasted Cynomolgus monkey at 2 mg/kg, iv by LC-MS/MS analysis; type: ADME, organism-based, Macaca fascicularis; conditions: in vivo
[25] = Oral bioavailability in fasted Cynomolgus monkey at 5 mg/kg by LC-MS/MS analysis; type: ADME, organism-based, Macaca fascicularis; conditions: in vivo
[26] = AUC (0 to t) in fasted Cynomolgus monkey at 2 mg/kg, iv by LC-MS/MS analysis; type: ADME, organism-based, Macaca fascicularis; conditions: in vivo
[27] = Stability in SGF assessed as compound degradation measured for 24 hrs by HPLC analysis; type: physicochemical; conditions: simulated gastric fluid (SGF), read-out: Drug degradation
[28] = Cmax in fasted Sprague-Dawley rat at 10 mg/kg, po by LC-MS/MS analysis; type: ADME, organism-based; conditions: in vivo
[29] = AUC (0 to t) in fasted Cynomolgus monkey at 5 mg/kg, po by LC-MS/MS analysis; type: ADME, organism-based, Macaca fascicularis; conditions: in vivo
[30] = Cmax in fasted Sprague-Dawley rat at 5 mg/kg, iv by LC-MS/MS analysis; type: ADME, organism-based; conditions: in vivo
[31] = Oral bioavailability in fasted Cynomolgus monkey administered orally by LC-MS/MS analysis; type: ADME, organism-based, Macaca fascicularis; conditions: in vivo

Compound	Activity [1] [%]	Activity [2] [%]	Activity [3] [%]	Activity [4] [%]	Activity [5] [%]	Activity [8] [%]	Activity [9] [%]	Activity [10] [%]	Activity [11] [%]	further results
CC(C)C(=O)OC[C@@]1(F)O[C@@H](n2ccc(=O)n(COC(=O)[C@@H](N)C(C)C)c2=O)[C@H](OC(=O)C(C)C)[C@@H]1OC(=O)C(C)C.Cl	-98.1	-2.1	-98.1	-1.2	-2.7	-0.6	-90.7	-5.2	-0.9	Cmax [6]: 1640 ng/mL; AUC(0-t) [7]: 11700 ng·h/mL
CCOC(=O)OCn1c(=O)ccn([C@@H]2O[C@](F)(COC(=O)C(C)C)[C@@H](O)[C@H]2O)c1=O										AUC(0-t) [12]: 15800 ng·h/mL; Cmax [13]: 2440 ng/mL
CCC(=O)OC[C@@]1(F)O[C@@H](n2ccc(=O)n(COC(=O)c3cccnc3)c2=O)[C@H](OC(=O)CC)[C@@H]1OC(=O)CC	-4.9	-0.1	-9.7	-0.1	-5.3	0	-1.9	-9.8	-1.9	
CC(=O)OCCOC(=O)n1c(=O)ccn([C@@H]2O[C@](F)(COC(=O)C(C)C)[C@@H](O)[C@H]2O)c1=O										AUC(0-t) [14]: 4300 ng·h/mL; Cmax [15]: 915 ng/mL
CCOC(=O)n1c(=O)ccn([C@@H]2O[C@](F)(COC(=O)C(C)C)[C@@H](O)[C@H]2O)c1=O										AUC(0-t) [16]: 4650 ng·h/mL; Cmax [17]: 569 ng/mL
O=c1ccn([C@@H]2O[C@](F)(CO)[C@@H](O)[C@H]2O)c(=O)[nH]1	-44.8	-43.5	-67.1	-24.9	-64.4	-8.8	-18.1	-86.9	-27.9	AUC(0-t) [18]: 7810 ng·h/mL; Cmax [19]: 2850 ng/mL; degraded at 24 h [20]: > 80%; half-life [21]: 5.13 h; AUC(0-t) [22]: 13000 ng·h/mL; half-life [23]: 4.34 h; Cmax [24]: 2530 ng/mL; bioavailability [25]: 62.9%; AUC(0-t) [26]: 4830 ng·h/mL; degraded at 24 h [27]: > 80%; Cmax [28]: 1740 ng/mL; AUC(0-t) [29]: 11600 ng·h/mL; Cmax [30]: 2900 ng/mL
CC(C)C(=O)OCn1c(=O)ccn([C@@H]2O[C@](F)(COC(=O)C(C)C)[C@@H](OC(=O)C(C)C)[C@H]2OC(=O)C(C)C)c1=O	-0.4	0	-1.8	0	-3.7	0	0	-10.8	-1.5	
CC(C)C(=O)O[C@H]1[C@H](n2ccc(=O)n(COC(=O)c3cccnc3)c2=O)O[C@](F)(COC(=O)c2cccnc2)[C@H]1OC(=O)C(C)C	-8.1	-0.8	-15.9	-0.8	-4.8	-0.6	-3.4	-7.8	-2.8	bioavailability [31]: 102%
